Assay results: publication PMC6917776, “Discovery of a chemical probe for PRDM9” (Nature Communications, 2019)

Test system: H3K4me3 at known PRDM9 binding loci and control TSS loci
Assay: ChIP-qPCR of H3K4me3 in PRDM9-transfected HEK293T cells
Assay type: cell-based, human
Settings: Replicate 1; for 2^-dCq (H3K4me3 ChIP relative to H3 ChIP): Figure 7 C, Antibody H3K4me3; for 2^-dCq: H3K4me3 ChIP normalised to H3; for dCq (IP-Input): H3K4me3 antibody
Description: ChIP-qPCR assays were then conducted on known PRDM9 binding loci[26]. Ectopic expression of PRDM9^WT increased trimethylation of H3K4 (H3K4me3) at previously described PRDM9-specific intragenic and intergenic regions[26] (Fig. 7; Supplementary Fig. 12). […] The observed increases in H3K4me3 levels at intragenic and intergenic regions are therefore due directly to PRDM9 PR domain-dependent methylation activity, rather than through recruitment of other H3K4 methyltransferases or other indirect mechanisms.
ChIP qPCR analyses of H3K4me3 methylation levels of known PRDM9-bound loci and control loci. […] Concentrations used (µM) are indicated below each plot. (a–d) represent reported loci of PRDM9 methylation; (e, f) are transcriptional start sites (TSSs) which are not known loci of PRDM9 methylation. Data are normalized to total H3 and are presented as the mean ± upper and lower limits from two replicates. Representative plots of two independent experiments are shown in this figure. The coordinates and the genomic features associated with the assayed loci are indicated above each plot. Left Tailed Student's t-tests were performed by comparing DMSO (0 µM) treated cells to compound treated cells that have been transfected with the same plasmids. *p-value < 0.05 and **p-value < 0.01. Note that here we show a representative of two independent experiments (mean ± s.d of technical replicates) for our ChIP-qPCR experiments. Data obtained using this technique are inherently noisy due to stochastic differences in gene activity/histone positioning. Data are thus typically presented as representative rather than averaged. Source data are provided as a Source Data file.
HEK293T cells were transfected with 37.5 μg empty pcDNA3.1(+) vector (Invitrogen), or the same vector expressing either wild-type PRDM9 (PRDM9^WT) or a catalytically dead PRDM9 mutant (PRDM9^Mut) and 75 μL of Lipofectamine 2000 (Invitrogen) in 6 mL of Opti-MEM (GIBCO) for 48 h. […] ChIP assays were then performed as previously described. Briefly, cells were fixed in 1% formaldehyde and the fixation reaction was quenched in a final concentration of 0.1 M glycine. Cell pellets were first lysed in LB1 (50 mM HEPES-KOH pH 7.5, 140 mM NaCl, 1 mM EDTA, 10% Glycerol, 0.5% Igepal, 0.25% TritonX), washed once in LB2 Buffer (10 mM Tris-HCl pH 8, 200 mM NaCl, 1 mM EDTA, 0.5 mM EGTA) and finally sonicated in LB3 buffer (10 mM Tris-HCl pH 8, 100 mM NaCl, 1 mM EDTA, 0.5 mM EGTA, 0.1% Sodium deoxycholate, 0.5% N-laurosylsarcosine) using a bioruptor (Diagenode). Thereafter, 50 μg of chromatin was subjected to ChIP using the following antibodies purchased from Abcam: α-H3K4me3 (1:200, ab8580, lot:GR3207339-1) and α-H3 (1:250, ab1791, lot:GR300978-4). After extensive washing in RIPA wash buffer (50 mM HEPES-KOH pH 7.6, 100 mM LiCl, 1 mM EDTA, 1% Igepal, 0.7% Sodium Deoxycholate), DNA was eluted from beads. The eluted DNA was treated with RNase A and Proteinase K and purified using the QIAGEN PCR purification kit. qPCR was then carried out targeting the indicated loci (Supplementary Table 3). Upper and lower limits were defined by |2^−(dCq±s) − 2^−(∆Cq)|, where s = √((Standard deviation of Input Cq)^2 + (Standard deviation of Target Cq)^2). […]
formation. ChIP qPCR analyses of H3K4me3 methylation levels at known PRDM9-bound and control loci. Cells transfected with empty vector (negative control) or vectors overexpressing either wild-type PRDM9 (PRDM9 WT) or catalytically dead PRDM9 (PRDM9 MUT) were […]
Panels a-d represent reported loci of […]
(1 picture or pasted object on this page, not shown here)
PRDM9 methylation; e-f are TSSs which are not known sites of PRDM9 methylation. Data are normalized to total H3 and are presented as the mean ± upper and lower limits from two […]

[1] = chr2:40281930-40282015 Intragenic (SLC8A1-AS1), Empty Vector
[2] = chr2:40281930-40282015 Intragenic (SLC8A1-AS1), PRDM9
[3] = chr2:40281930-40282015 Intragenic (SLC8A1-AS1), PRDM9_Cat.Dead
[4] = chr2:128811847-128811944 (Intergenic), Empty Vector
[5] = chr2:128811847-128811944 (Intergenic), PRDM9
[6] = chr2:128811847-128811944 (Intergenic), PRDM9_Cat.Dead
[7] = chr3:165514798-165514911 Intragenic (BCHE), Empty Vector
[8] = chr3:165514798-165514911 Intragenic (BCHE), PRDM9
[9] = chr3:165514798-165514911 Intragenic (BCHE), PRDM9_Cat.Dead
[10] = chr8:49932778-49932856 (Intergenic), Empty Vector

SMILES: COc1cc(OC)cc(-c2noc(N3CCN(C)C4(CCN(c5ccnc(C)c5)CC4)C3)n2)c1 [MRK-740]
- 2^-dCq (H3K4me3 ChIP relative to H3 ChIP) (chr2:40281930-40282015 Intragenic (SLC8A1-AS1), Plasmid Empty Vector, Drug Conc. 2.5): 0.4152
- 2^-dCq (H3K4me3 ChIP relative to H3 ChIP) (chr2:40281930-40282015 Intragenic (SLC8A1-AS1), Plasmid Empty Vector, Drug Conc. 5): 0.3238
- 2^-dCq (H3K4me3 ChIP relative to H3 ChIP) (chr2:40281930-40282015 Intragenic (SLC8A1-AS1), Plasmid Empty Vector, Drug Conc. 10): 0.507
- 2^-dCq (H3K4me3 ChIP relative to H3 ChIP) (chr2:40281930-40282015 Intragenic (SLC8A1-AS1), Plasmid PRDM9WT, Drug Conc. 2.5): 3.2145
- 2^-dCq (H3K4me3 ChIP relative to H3 ChIP) (chr2:40281930-40282015 Intragenic (SLC8A1-AS1), Plasmid PRDM9WT, Drug Conc. 5): 2.572
- 2^-dCq (H3K4me3 ChIP relative to H3 ChIP) (chr2:40281930-40282015 Intragenic (SLC8A1-AS1), Plasmid PRDM9WT, Drug Conc. 10): 2.028
- 2^-dCq [1]: 0.4145
- 2^-dCq [2]: 3.496
- 2^-dCq [3]: 0.3605
- 2^-dCq [4]: 0.4852
- 2^-dCq [5]: 2.263
- 2^-dCq [6]: 0.5507
- 2^-dCq [7]: 0.3297
- 2^-dCq [8]: 5.1
- 2^-dCq [9]: 0.2515
- 2^-dCq [10]: 0.5103
- 2^-dCq (chr8:49932778-49932856 (Intergenic), PRDM9): 4.604
- 2^-dCq (chr8:49932778-49932856 (Intergenic), PRDM9_Cat.Dead): 0.4888
- 2^-dCq (chr12:6643945-6644023 TSS (GAPDH), Empty Vector): 45.392
- 2^-dCq (chr12:6643945-6644023 TSS (GAPDH), PRDM9): 42.4818
- 2^-dCq (chr12:6643945-6644023 TSS (GAPDH), PRDM9_Cat.Dead): 88.4248
- 2^-dCq (chr19:8510167-8510261 TSS (HNRNPM), Empty Vector): 50.4703
- 2^-dCq (chr19:8510167-8510261 TSS (HNRNPM), PRDM9): 42.5896
- 2^-dCq (chr19:8510167-8510261 TSS (HNRNPM), PRDM9_Cat.Dead): 88.2214
- dCq (IP-Input) [1]: 1.27
- dCq (IP-Input) [2]: -1.806
- dCq (IP-Input) [3]: 1.472
- dCq (IP-Input) [4]: 1.0432
- dCq (IP-Input) [5]: -1.178
- dCq (IP-Input) [6]: 0.8606
- dCq (IP-Input) [7]: 1.601
- dCq (IP-Input) [8]: -2.351
- dCq (IP-Input) [9]: 1.992
- dCq (IP-Input) [10]: 0.9707
